Measurements from patent US20230322717A1, “SOLID FORM OF PYRAZINE SUBSTITUTED NICOTINAMIDE, AND PREPARATION AND USE THEREOF” (Shenzhen TargetRx, Inc., priority 2020, published 2023).
Converted amounts (≈) assume the structure as drawn.

Columns and labels:
Type in all cases: physicochemical
[1] = Dynamic moisture adsorption and desorption analysis (DVS); settings: for crystal form after DVS test (XRPD): before and after DVS test; for hygroscopicity (DVS): moisture range 0% to 90%
Protocol: The instrument model used for dynamic moisture adsorption and desorption analysis was IGA Sorp (Hidentity Isochema). The samples were measured in a gradient mode with a moisture range of 0% to 90%, wherein the humidity increment of each gradient was 10%.

[2] = Solubility study of the starting material (the crystal form I of compound A) in different solvents
Protocol: About 2 mg of the starting material was weighed and added into a sample bottle, and different solvents were added respectively, until the starting material was dissolved.

[3] = Stability study of the crystal form I of compound A and the crystal form I of compound A p-toluenesulfonate (HPLC, XRPD); settings: 7 days at 40° C./75% RH and 60° C.
Protocol: A certain amount of samples of the crystal form I of compound A and the crystal form I of compound A p-toluenesulfonate (Batch No.: PTSA-A1) were placed in a stability test chamber, and kept at 40° C./75%RH and 60° C. for 7 days, respectively. The samples were tested by HPLC and XRPD at various time points.

[4] = Solubility study in SGF, FaSSIF and FeSSIF (HPLC of filtrate, XRPD of solid)
Protocol: The solubilities of the crystal form I of compound A and the crystal form I of compound A p-toluenesulfonate in SGF (simulated gastric fluid), FaSSIF (fasted state simulated intestinal fluid) and FeSSIF (fed state simulated intestinal fluid) were studied.
The solubilities of samples in SGF, FaSSIF and FeSSIF at 37° C. for 24 hours were determined. 40 mg of the sample was placed in a sample bottle, and 1.5 mL of solvent was added. The mixture was mixed well, and shaken on a shaker at 200 rpm for 24 hours. The suspension was filtered at 0.5, 2 and 24 hours. The filtrate was analyzed by HPLC, and the solid was tested by XRPD.

O=C(Nc1ccc(OC(F)(F)Cl)cc1)c1cnc(N2CC[C@@H](F)C2)c(-c2cnccn2)c1.O=S(=O)(O)c1ccccc1 [(R)-N-(4-(chlorodifluoromethoxy)phenyl)-6-(3-fluoropyrrolidin-1-yl)-5-(pyrazin-2-yl)nicotinamide benzenesulfonate]
water absorption ([1]; 0-60%RH): about 0.4%
water absorption ([1]; 0-90%RH): about 1.5%
crystal form after DVS test (XRPD) [1]: not changed
hygroscopicity (DVS) [1]: slightly hygroscopic

Cl.O=C(Nc1ccc(OC(F)(F)Cl)cc1)c1cnc(N2CC[C@@H](F)C2)c(-c2cnccn2)c1 [(R)-N-(4-(chlorodifluoromethoxy)phenyl)-6-(3-fluoropyrrolidin-1-yl)-5-(pyrazin-2-yl)nicotinamide hydrochloride]
water absorption ([1]; 0-40%RH (relative humidity)): about 0.4%
water absorption ([1]; 0-90%RH): about 2.8%
crystal form after DVS test (XRPD) [1]: not changed
hygroscopicity (DVS) [1]: slightly hygroscopic

O=C(Nc1ccc(OC(F)(F)Cl)cc1)c1cnc(N2CC[C@@H](F)C2)c(-c2cnccn2)c1 [the crystal form I of compound A]
Solubility ([2]; solvent: 2-Butanone): ~73.67 mg/mL (≈ 159 mM)
Solubility ([2]; solvent: Acetone): ~77 mg/mL (≈ 166 mM)
Solubility ([2]; solvent: Acetonitrile): ~53.25 mg/mL (≈ 115 mM)
Solubility ([2]; solvent: Ethanol): ~1.31 mg/mL (≈ 2.82 mM)
Solubility ([2]; solvent: Ethyl Acetate): ~49.25 mg/mL (≈ 106 mM)
Solubility ([2]; solvent: Isobutanol): ~0.73 mg/mL (≈ 1.57 mM)
Solubility ([2]; solvent: Isopropyl Acetate): ~22.1 mg/mL (≈ 47.6 mM)
Solubility ([2]; solvent: Isopropyl Alcohol): ~0.92 mg/mL (≈ 1.98 mM)
Solubility ([2]; solvent: Methanol): ~11.83 mg/mL (≈ 25.5 mM)
Solubility ([2]; solvent: Methyl Tert-Butyl Ether): ~2.8 mg/mL (≈ 6.04 mM)
Solubility ([2]; solvent: Tetrahydrofuran): ~121 mg/mL (≈ 261 mM)
Solubility ([2]; solvent: Toluene): ~1.23 mg/mL (≈ 2.65 mM)
Solubility (mg/mL) ([2]; solvent: Water): <<0.55 mg/mL

Cc1ccc(S(=O)(=O)O)cc1.O=C(Nc1ccc(OC(F)(F)Cl)cc1)c1cnc(N2CC[C@@H](F)C2)c(-c2cnccn2)c1 [(R)-N-(4-(chlorodifluoromethoxy)phenyl)-6-(3-fluoropyrrolidin-1-yl)-5-(pyrazin-2-yl)nicotinamide p-toluenesulfonate]
crystal form stability (XRPD) [3]: remained unchanged
water absorption ([1]; 0-80%RH): about 0.39%
water absorption ([1]; 0-90%RH): about 0.61%
crystal form after DVS test (XRPD) [1]: not changed
hygroscopicity (DVS) [1]: slightly hygroscopic
crystal form of the undissolved solid (XRPD) ([4]; FaSSIF and FeSSIF for 0.5 hours): changed
solubility compared with the other form ([4]; FaSSIF and FeSSIF vehicles, 24 hours, 37° C.): higher solubility than that of the free base
crystal form of the undissolved solid (XRPD) ([4]; SGF for 24 hours): changed
dependence of solubility on pH ([4]; SGF, FaSSIF, FeSSIF, 37° C.): affected by pH value
solubility in a solution with a higher pH value ([4]; after 2 hours): higher solubility
